Data on one substance can be found in article PMC11865978, “Cellular Activity of CQWW Nullomer-Derived Peptides” (ACS Omega, 2025).

The test system of one assay is GSK-3. Kind of assay: Reverse phase protein array (RPPA). In kind it is cell-based, human. Conditions: peptides at 3 μM, 3 h and 24 h (peptide 7: 24 h only), seven cell lines; fold difference vs water control. The source says: The phenotypic effect of the peptides was visualized by live cell imaging (Figure 1C, IncuCyte live cell imager) and also quantified via image analysis of cells labeled with the cell painting reagents (see Supporting Information) followed by image analysis using Cell Profiler (cellprofiler.org). Multiparametric outputs from Cell Profiler were processed using Phenonaut[46] [v 2.0.3] (see Jupyter notebook ‘Phenonaut_processing_of_nullomer_data.ipynb’ in the Aminonaut repository for methods and code used). […] Peptides 2, 5, and 7 were deemed to have the most merit for mode of action determination using reverse phase protein arrays (RPPAs) (see Supporting Information for methods). […]
(§1) growth and stemness was further supported by the addition of laminin extracellular matrix (Cultrex 3446-005-01, 4-10 mg/mL) to the growth media and to create pre-coated flasks/384w plates. Cells were cultured in T75 cm2 flasks and passaged as follows: Glioma stem cells generally grow slowly (~60hrs doubling time, excepting GCGR-E57 cells ~24hrs) and lag phase was exacerbated by sparse seeding. Cell confluence is generally ~80 -90% prior to passaging, whereby the culture media was aspirated, the cells washed (PBS) and Accutase solution (Sigma A6964, 1 mL) was added to detach the cells, which were then incubated at 37 °C for <5 minutes. Cells were resuspended in media and centrifuged for 3 minutes at 300 × g. Resuspended cells were typically split 1:5, 1:8 (GCGR-E57 cells) and 1:2, 1:4 for the remainder of cell lines, depending on requirements . Cells were passaged every 4-7 days to maintain health and growth and discarded after 3 months, whereupon a fresh batch of cells […]
Reverse Phase Protein Array (RPPA)
Culture media was aspirated and cells washed with wash media. Accutase solution (1mL) was used to detach the cells which were then incubated at 37 °C for 5 minutes. 10 mL of wash media was added, and the cells were pipetted into a 15 mL conical tube, after which they were centrifuged for 3 minutes at 300× g to form a pellet. Supernatant was aspirated, and cells resuspended in 5 mL of wash media. A 10 μL sample of the cell suspension was pipetted onto the reading surface of a DeNovix CellDrop automated cell counter and the reading was used to dilute the suspension in complete media to 250,000 cells/mL. 2 mL of this suspension was added to each well of 6-well plates to seed plates at 500,000 cells per well. 2 plates of each cell type (GCGR-E13, GCGR-E21, GCGR-E28, GCGR-E31, GCGR-E34, GCGR-E57 and GCGR-NS9FB_B) were seeded, one each for two nullomer dosage […]
timepoints (3 h and 24 h). The cells were incubated in the 6-well plates overnight, and dosing was carried out in the following morning. […]

Assay [1] concerns Met, ERBB2, CCND1, PTEN, PARP1, GSK3B. The assay can be described thus: RPPA with STRING network analysis. The note with it: peptide at 3 μM. Format: cell-based, human. Here is the method:
as §1
Culture media was aspirated and cells washed with wash media. […] A 10 μL sample of the cell suspension was pipetted onto the reading surface of a DeNovix CellDrop automated cell counter and the reading was used to dilute the suspension in complete media to 250,000 cells/mL. […]
The cell pellet preparation was performed on ice. […] The supernatant was aspirated, and the pellets were stored at -80 °C until ready for RPPA. […]

In the case of H-RRRRRCQWW-NH2 [Peptide 2], the “GSK-3 regulation in RPPA” value in the assay on GSK-3 was “downregulation of GSK-3β”. In addition, in assay [1], the “proteins with decreased expression (RPPA, STRING network analysis)” value was “PTEN, PARP1, GSK3B” and the “proteins with increased expression (RPPA, STRING network analysis)” value was “Met, ERBB2, CCND1”.
